{"source": "patent US20230293629A1", "about": "“METHODS FOR ATTENUATING RELEASE OF INFLAMMATORY MEDIATORS AND PEPTIDES USEFUL THEREIN” (BIOMARCK PHARMACEUTICALS LTD., priority 2006, published 2023)", "key": {"[1]": {"test_system": "MARCKS phosphorylation in NHBE cells", "assay": "MARCKS phosphorylation in NHBE cells, radiolabeled immunoprecipitation assay", "type": "cell-based, human", "procedure": "Radiolabeled Immunoprecipitation Assay—When labeling with [^32P]phosphate, cells were preincubated for 2 h in phosphate-free Dulbecco's modified Eagle's medium containing 0.2% bovine serum albumin and then labeled with 0.1 mCi/ml [^32P]orthophosphate (9000 Ci/mmol, PerkinElmer Life Sciences) for 2 h. For labeling with [^3H]myristic acid or 3H-amino acids, cells were incubated overnight in medium containing 50 μCi/ml [^3H]myristic acid (49 Ci/mmol, PerkinElmer Life Sciences) or 0.2 mCi/ml [^3H]leucine (159 Ci/mmol, PerkinElmer Life Sciences) plus 0.4 mCi/ml [^3H]proline (100 Ci/mmol, PerkinElmer Life Sciences). Following labeling, cells were exposed to stimulatory reagents for 5 min. When an inhibitor was used, cells were preincubated with the inhibitor for 15 min prior to stimulation. At the end of the treatments, cells were lysed in a buffer containing 50 mM Tris-HCl (pH 7.5), 150 mM NaCl, 1 mM EDTA, 10% glycerol, 1% Nonidet P-40, 1 mM phenylmethylsulfonyl fluoride, 1 mM benzamidine, 10 μg/ml pepstatin A, and 10 μg/ml leupeptin. Trichloroacetic acid precipitation and scintillation counting may determine the radiolabeling efficiency in each culture. Immunoprecipitation of MARCKS protein was carried out according to the method of Spizz and Blackshear using cell lysates containing equal counts/min. Spizz et al., J. Biol. Chem. 271, 553-562 (1996). Precipitated proteins were resolved by 8% SDS-polyacrylamide gel electrophoresis and visualized by autoradiography. Anti-human MARCKS antibody (2F12) and nonimmune control antibody (6F6) were used in this assay.\nTo assess MARCKS or MARCKS-associated protein complexes in different subcellular fractions, radiolabeled and treated cells were scraped into a homogenization buffer (50 mM Tris-HCl (pH 7.5), 10 mM NaCl, 1 mM EDTA, 1 mM phenylmethylsulfonyl fluoride, 1 mM benzamidine, 10 μg/ml pepstatin A, 10 μg/ml leupeptin) and then disrupted by nitrogen cavitation (800 pounds/square inch for 20 min at 4° C.). Cell lysates were centrifuged at 600×g for 10 min at 4° C. to remove nuclei and unbroken cells. Post-nuclear supernatants were separated into membrane and cytosol fractions by ultracentrifugation at 400,000×g for 30 min at 4° C. The membrane pellet was solubilized in the lysis buffer by sonication. Immunoprecipitation was then carried out as described above."}, "NHBE cells": {"test_system": "NHBE cells", "assay": "Mucin secretion from NHBE cells, ELISA", "type": "cell-based, human", "conditions": "FIG. 3; NHBE cells preincubated 15 min; okadaic acid 500 nM, fostriecin indicated concentrations", "procedure": "It is believed that PKG acts to dephosphorylate MARCKS via activation of a protein phosphatase. […] NHBE cells were preincubated with the indicated concentration of fostriecin, okadaic acid (500 nM), or medium alone for 15 min and then stimulated with PMA (100 nM)+8-Br-cGMP (1 μM) for 15 min or with UTP (100 μM) for 2 h. Secreted mucin was measured by ELISA. […] Thus, dephosphorylation of MARCKS by a PKG-activated PP2A appears to be an essential component of the signaling pathway leading to mucin granule exocytosis.\nMARCKS-related Peptides—Both the myristoylated N-terminal sequence (MANS) and the random N-terminal sequence (RNS) peptides were synthesized at Genemed Synthesis, Inc. (San Francisco, Calif.), then purified by high pressure liquid chromatography (>95% pure), and confirmed by mass spectroscopy with each showing one single peak with an appropriate molecular mass. The MANS peptide consisted of sequence identical to the first 24 amino acids of MARCKS, i.e. the myristoylated N-terminal region that mediates MARCKS insertion into membranes, MA-[…] […]"}, "PP2A [2]": {"target": "PP2A (Homo sapiens, UniProt P67775)", "sequence (P67775 whole entry)": "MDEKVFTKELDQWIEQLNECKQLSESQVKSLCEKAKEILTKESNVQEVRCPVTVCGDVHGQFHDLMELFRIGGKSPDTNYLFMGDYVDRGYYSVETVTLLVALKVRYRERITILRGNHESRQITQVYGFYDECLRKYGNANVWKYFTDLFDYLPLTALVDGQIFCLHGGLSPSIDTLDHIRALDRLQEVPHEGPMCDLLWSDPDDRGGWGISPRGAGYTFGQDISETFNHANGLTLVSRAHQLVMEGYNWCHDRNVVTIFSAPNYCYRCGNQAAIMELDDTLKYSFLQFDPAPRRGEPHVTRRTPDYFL", "conditions": "inhibitor of PP2A; cited from earlier work"}, "[3]": {"test_system": "isolated human neutrophils", "assay": "MPO secretion from isolated human neutrophils stimulated with PMA + 8-Br-cGMP (FIG. 7, 8, 9)", "type": "cell-based", "conditions": "FIG. 9; 8-Br-cGMP alone, until co-stimulation with PMA"}, "[4]": {"test_system": "isolated canine neutrophils", "assay": "MPO secretion from isolated canine neutrophils stimulated with PMA + 8-Br-cGMP (FIG. 6, 10, 11)", "type": "cell-based", "conditions": "FIG. 11; 8-Br-cGMP alone, until co-stimulation with PMA", "source_text": "The invention also relates to a new method for blocking any cellular exocytotic secretory process, especially those releasing inflammatory mediators from granules contained within inflammatory cells, whose stimulatory pathways involve the protein kinase C (PKC) substrate MARCKS protein and release of contents from membrane-bound vesicles. Specifically, the inventors have shown that stimulated release of the inflammatory mediator myloperoxidase from human (FIG. 6) or canine (FIG. 7) neutrophils can be blocked in a concentration-dependent manner by the MANS peptide. […] 10 or 100 μM of a control peptide (RNS) has no effect on MPO secretion. In FIG. 7, isolated neutrophils were stimulated to secrete myloperoxidase (MPO) with 100 nM PMA and 10 μM 8-Br-cGMP. […] 10 or 100 μM of a control peptide (RNS) has no effect on MPO secretion. Thus, the peptide may be used therapeutically to block the release of mediators of inflammation secreted from infiltrating inflammatory cells in any tissues. Many of these released mediators are responsible for the extensive tissue damage observed in a variety of chronic inflammatory diseases (i.e., respiratory diseases such as asthma, chronic bronchitis and COPD, inflammatory bowel diseases including ulcerative colitis and Crohn's disease, autoimmune diseases, skin diseases such as rosacea, eczema; and severe acne, arthritic and pain syndromes such as rheumatoid arthritis and fibromyalgia). This invention may be useful for treating diseases such as arthritis, chronic bronchitis, COPD and cystic fibrosis. This invention is accordingly useful for the treatment in both human and animal diseases, especially those affecting equines, canines, felines, and other household pets.\nFIGS. 8-12 show MPO secretion for both humans and canines. In all of these experiments, isolated neutrophils were stimulated with LPS at a concentration of 1×10^−6 M for 10 minutes at 37° C. prior to adding the stimuli as indicated in the figures. The LPS primes the cells so they can respond to a secretagogue.\nIsolation of PMNs from canine blood—The steps involved in isolating PMN include collecting 10 ml ACD anticoagulated blood. Then layering 5 ml on 3.5 ml PMN isolation media while ensuring that the PMN isolation media (IM) was at room temperature (RI). Next, the blood was centrifuged at room temperature for 30′, 550×g at 1700 RPMs. The low lower white band was transferred into 15 ml conical centrifuge tube (CCFT). Next, 2V HESS with 10% fetal bovine serum […] was added and centrifuged at room temperature for 10′, 400×g at 1400 RPMs. The pellet was then resuspended in 5 ml 1-1ESS with PBS. The cell suspension was added to 50 ml CCFT containing 20 ml of ice cold 0.88% NH4Cl and inverted two to three times. The resulting product was centrifuged for 10′, 800×g at 2000 RPMs, then aspirated and resuspended in 5 ml HBSS with FBS. The prep was examined by counting and cytospin and preferably for whole blood, the cell number should be between 10^9-10^11 cells and for PMNs, cell number should be between 2-4×10^7 cells. See generally, Wang et al., J. Immunol., “Neutrophil-induced changes in the biomechanical properties of endothelial cells: roles of ICAM-1 and reactive oxygen species,” 6487-94 (2000).\nMPO Colorimetric Enzyme Assay—Samples were assayed for MPO activity in 96 well round bottom microtiter plates using a sandwich ELISA kit (R & D Systems, Minneapolis, Minn.). […]"}, "PP2A [5]": {"test_system": "PP2A", "assay": "Protein phosphatase activity assay in NHBE cell lysates, PP2A", "type": "cell-based, human", "procedure": "(§1) Protein Phosphatase Activity Assay—PP1 and PP2A activities were measured using a protein phosphatase assay system (Life Technologies, Inc.) as known in the art with slight modification. Huang et al., Adv. Exp. Med Biol. 396, 209-215 (1996). Briefly, NHBE cells were treated with 8-Br-cGMP or medium alone for 5 min. Cells were then scraped into a lysis buffer (50 mM Tris-HCl (pH 7.4), 0.1% β-mecaptoethanol, 0.1 mM EDTA, 1 mM benaamidine, 10 μg/ml pepstatin A, 10 μg/ml leupeptin) and disrupted by sonication for 20 s at 4° C. Cell lysates were centrifuged and the supernatants saved for phosphatase activity assay. The assay was performed using ^32P-labeled phosphorylase A as a substrate. Released ^32Pi was counted by scintillation. The protein concentration of each sample was determined by the Bradford assay. PP2A activity was expressed as the sample total phosphatase activity minus the activity remaining in the presence of 1 nM okadaic acid. PP1 activity was expressed as the difference between the activities remaining in the presence of 1 nM and 1 μM okadaic acid, respectively. Protein phosphatase activities were reported as nmol of Pi released per min/mg total protein."}, "PP1": {"test_system": "PP1", "assay": "Protein phosphatase activity assay in NHBE cell lysates, PP1", "type": "cell-based, human", "conditions": "NHBE cells after 8-Br-cGMP", "procedure": "as §1"}}, "data": [{"compound": "calphostin C", "values": [{"measurement": "effect on PMA-induced MARCKS phosphorylation", "setting": "[1]; 500 nM calphostin C + 100 nM PMA", "result": "attenuated"}]}, {"compound": "C=C1[C@@H](O)[C@@H]2O[C@]3(CC[C@H](/C=C/[C@@H](C)[C@@H]4CC(C)=C[C@@]5(O[C@H](C[C@@](C)(O)C(=O)O)CC[C@H]5O)O4)O3)CC[C@H]2O[C@@H]1[C@@H](O)C[C@H](C)[C@H]1O[C@@]2(CCCCO2)CC[C@H]1C", "note": "[okadaic acid]", "values": [{"measurement": "mucin secretion induced by PMA+8-Br-cGMP or UTP", "setting": "NHBE cells", "result": "attenuated mucin secretion"}, {"measurement": "effect on PKG-induced MARCKS dephosphorylation", "setting": "[1]; 500 nM okadaic acid", "result": "blocked"}]}, {"compound": "C[C@@](O)(/C=C/[C@H]1CC=CC(=O)O1)[C@@H](C[C@@H](O)\\C=C/C=C\\C=C\\CO)OP(=O)(O)O", "note": "[fostriecin]", "values": [{"measurement": "IC50", "setting": "PP2A [2]", "result": 3.2, "unit": "nM"}, {"measurement": "mucin secretion induced by PMA+8-Br-cGMP or UTP", "setting": "NHBE cells", "result": "attenuated mucin secretion"}, {"measurement": "effect on PKG-induced MARCKS dephosphorylation", "setting": "[1]; fostriecin 1-500 nM", "result": "inhibited PKG-induced MARCKS dephosphorylation in a concentration-dependent manner"}]}, {"compound": "Nc1nc2c(nc(Br)n2[C@@H]2O[C@@H]3COP(=O)(O)O[C@H]3[C@H]2O)c(=O)[nH]1", "note": "[8-Br-cGMP]", "values": [{"measurement": "MPO secretion from LPS-stimulated human neutrophils", "setting": "[3]", "result": "little effect"}, {"measurement": "MPO secretion from LPS-stimulated canine neutrophils", "setting": "[4]", "result": "little effect"}, {"measurement": "PP2A activity", "setting": "PP2A [5]; NHBE cells after 8-Br-cGMP, from 0.1", "result": 0.3, "unit": "nmol/min/mg proteins"}, {"measurement": "increase of PP2A activity", "setting": "PP2A [5]; NHBE cells, 8-Br-cGMP as low as 0.1 μM, p<0.01", "result": "approximately 3 fold"}, {"measurement": "effect on MARCKS phosphorylation induced by PMA", "setting": "[1]; 1 μM 8-Br-cGMP, 100 nM PMA", "result": "reversed"}, {"measurement": "PP1 activity", "setting": "PP1", "result": "remained unchanged"}]}]}
